Measured values as given in patent US9314471B2, “Methods of preparing pharmaceutical solid state forms” (NeurMedix, Inc., priority 2008, dated 2016).

Assays:
[1] = Reanalysis of crystalline forms after prolonged standing; format: physicochemical
From the text: Thus, crystalline Form V of 17α-ethynyl-androstane-3α,17β-diol is an anhydrate (i.e., has no solvent in its crystal structure).
Prior to dissolution of Form VI for NMR analysis, the Form VI sample was washed with CCl4 to remove non-specifically absorbed surface solvent. Proton NMR spectroscopy thus indicates Form VI is a dioxane solvate, which is supported by the DTA/TGA data, and is most likely a mono dioxane solvate based upon integration of the δ 3.64 ppm resonance and the weight loss in TGA. After prolonged standing at ambient temperature and pressure, the Form VI sample was reanalyzed by DTA/TGA and proton NMR. […] Thus, desolvation of Form VI may occur if storage precautions are inadequate and may be accompanied by a polymorphic transition to a more thermodynamically stable form such as Form III.
Thus, crystalline Form VII of 17α-ethynyl-androstane-3α,17β-diol is most likely an anhydrate (i.e., has no solvent in its crystal structure).

[2] = Vapor stressing of melt-quenched amorphous Compound 1; format: physicochemical
Protocol: Amorphous compound 1, with varying degrees of crystallinity was also obtained form melt-quenching Form III according to the following procedure. Form III was lightly crushed with a spatula in a vial that was then placed in an oilbath set at 175° C. A nitrogen stream was run through the vial and the vial kept in the oilbath until the sample had melted. The vial was then removed and quickly placed in a bath containing dry ice with acetone. The sample was placed in a freezer under desiccant and analyzed by XRPD for crystallinity.
The propensity of amorphous material to convert to various crystalline forms was studied by vapor stressing melt-quenched Compound 1, prepared from Form III by the immediately preceding procedure.

[3] = Interconversion of crystalline forms in methanol-water (XRPD); format: physicochemical
Protocol: Form III Compound 1 (77.1 mg) was added to a glass vial, followed by MeOH (0.8 mL) and a stirring bar. The sample was placed in an oil bath at 65° C. and solids completely dissolved. Additional Form III was added so that excess solids remained and the mixture stirred for about 20 minutes. Additional MeOH (0.2 mL) was added and the mixture was hot filtered into a clean vial using a 0.2 μm nylon filter, and the filtrate was then placed in the oil bath at 65° C. Water (1 mL) was added and the mixture cooled to 20° C. over 2 hours. […] Form I was also produced from a slurry of Form III in 1:1 methanol water or 3:1 methanol:water that is seeded with samples having XRPD patterns of Form IV, Form V, Form VI, Form VII and Form VIII and stirred for 5 da at about 65° C. or 7 da at about 5° C.

established LNCaP tumors = experiment: AED-stimulated LNCaP tumor model, effect on established LNCaP tumors; format: in vivo, SCID mice; settings: 4 mg/mouse/day once a day for three weeks
Protocol: (§1) Castrated SCID mice (six week-old) were implanted with a 5 mg AED, 60-day time-release pellet (Innovative Labs, Sarasota Fla.). After three days, all mice were injected subcutaneously in the right flank with 100 μL of 7.5×10^6 LNCaP tumor cells in phenol red-free RPMI mixed 1:1 with Matrigel. Tumor volumes were measured weekly and calculated as a2×b/2 with a being the width and b the length of the tumor in millimeters (reported as mm^3).
To test the effect of a Compound 1 on established LNCaP tumors, 36 castrated SCID mice received AED pellets and were inoculated with LNCaP tumors and monitored as described above. Once the tumors reach 15-25 mm^3, the mice were paired by tumor volume, and each mouse in a pair was assigned to the vehicle or 4 mg/mouse/day Compound 1 group. Animals were dosed once a day for three weeks.
(§2) Statistical analysis: Time to first measurable tumor volume was analyzed via Kaplan-Meier product limit estimates, with the exact log-rank test applied to test for the significance of the difference. Reduction of tumor volume is defined as a reduction in volume of at least 20% of the baseline volume, persisting to the end of the study. To detect the difference between active and control group, Fisher's exact test and exact 95% Cl for the difference was applied. A tumor of non-measurable volume is a tumor that, with the methodology at hand, measures 0 to the end of the study. The growth rate of a tumor was also analyzed via the mixed model.

LNCaP Cells [4] = experiment: Cell cycle analysis of LNCaP cells (DAPI, cytometer); format: cell-based; settings: 50 nM, four days, LNCaP cells in FBS or CSS
Protocol: (§3) LNCaP Cells (5×10^5) were seeded in phenol-red free RPMI with 5% hormone depleted charcoal stripped serum (CSS) in 6-well plates and allowed to adhere overnight, then cultured in fetal bovine serum (FBS) or CSS with or without 50 nM Compound 1 for four days. At the end of the incubation period, floating and adherent cells were harvested for cell cycle analysis. LNCaP cells were resuspended in a […] solution of 4,6-diamidino-2-phenylindole (DAPI) and 0.1% NP-40 in a Tris-buffered saline solution (pH 7.0) and analyzed using an Influx cytometer (Cytopiea, Seattle, Wash.). Analyses were performed with MultiCycle software (Phoenix Flow Systems, San Diego, Calif.). The Annexin V-FITC Apoptosis Detection Kit (Calbiochem, La Jolla, Calif.) was used according to the instructions of the manufacturer to detect apoptosis.

[5] = test system: breast tumors induced by the administration of the carcinogen N-methyl-nitrosourea (NMU); experiment: MNU stimulated breast tumor model; format: in vivo, Lewis rats
From the text: The following study determined the effect of a formulation prepared with a polymorph of 17α-ethynyl-androst-5-ene-3α,17β-diol (Crystalline Form III of Compound 1) on the rate of growth and incidence of breast tumors induced by the administration of the carcinogen N-methyl-nitrosourea (NMU). Additionally, the activity of Compound 1 was compared to TAMOXIFEN™ ((Z)-2-[4-(1,2-diphenylbut-1-enyl)phenoxy]-N,N-dimethyl-ethanamine), ARIMIDEX™ (anastrozole) and TAXOTERE™ (docetaxel), which are drugs currently used to treat breast cancer.
Seven week old female Lewis rats (150 animals, 104 required for the study) were anesthetized with isoflurane for NMU administration. NMU was the administered ip. at a dose of 50 mg/Kg. Mammary tumors that developed were measured using a vernier caliper with two axes of the tumor measured in cm. Treatment commenced using a liquid formulation of Compound 1, prepared by dissolving crystalline […] in vehicle, when rats have a tumor volume of 0.5 cm×0.5 cm (at about 12-20 week of age). Treatment continued for 28 consecutive days, followed by 28 days of observation.
The experimental groups were Negative control group (no treatment), Vehicle control group (30% cyclodextrin-sulfobutylether in water), two treatment groups (8 mg/rat and 4 mg/rat), three standard therapy groups using an estrogen blocker (TAMOXIFEN™), an aromatase inhibitor (ARIMIDEX™), a cytotoxic agent (TAXOTERE™) and a combination treatment group receiving Compound 1 (8 mg/kg) and TAXOTERE™.

LNCaP Cells [6] = experiment: Annexin V-FITC apoptosis detection in LNCaP cells; format: cell-based; settings: 50 nM, four days
Protocol: as §3

LNCaP tumor cells = experiment: AED-stimulated LNCaP tumor model, effect of dose on tumor incidence; format: in vivo, SCID mice; settings: for mean tumor volume in the animals that developed tumors: 28 days, vehicle 157 mm^3; for tumor incidence (compared to vehicle): daily for 28 days from 24 hours after tumor inoculation
Protocol: as §1
To test the effect of dose on tumor incidence, a total of 48 castrated male SCID mice were implanted with LNCaP tumor cells as described, and the mice were randomly divided into 4 groups of 12 animals each to provide vehicle control (30% cyclodextrin-sulfobutylether in water) group and treatment groups using 4 mg/mouse/day, 1 mg/mouse/day, and 0.4 mg/mouse/day). Treatment groups used a liquid formulation prepared by dissolving a solid state form of 17α-ethynyl-androst-5-ene-3α,17β-diol (Compound 1) in vehicle, which provided 20 mg Compound 1 per mL in 30% cyclodextrin-sulfobutylether in water. The liquid formulation so prepared was administered 24 hours after tumor inoculation as a 200 μL intraperitoneal (ip) injection. All animals were dosed daily for 28 consecutive days and tumor volumes were measured weekly.
as §2

C#C[C@]1(O)CC[C@H]2[C@@H]3CC[C@H]4C[C@H](O)CC[C@]4(C)[C@H]3CC[C@@]21C [Form V, 17α-ethynyl-5α-androstane-3α,17β-diol]
polymorphic transition on prolonged standing (XRPD reanalysis) ([1]; prolonged standing): undergone a polymorphic transition to Form III

C#C[C@]1(O)CC[C@H]2[C@@H]3CC[C@H]4C[C@H](O)CC[C@]4(C)[C@H]3CC[C@@]21C [amorphous Compound 1, 17-ethynyl-5α-androstane-3α,17β-diol]
conversion of amorphous material to crystalline form ([2]; vapor stressing at high humidity): will convert back to Form III

C#C[C@]1(O)CC[C@H]2[C@@H]3CC[C@H]4C[C@H](O)CC[C@]4(C)[C@H]3CC[C@@]21C [Form VI, 17α-ethynyl-5α-androstane-3α,17β-diol]
desolvation on standing (DTA/TGA reanalysis) ([1]; prolonged standing at ambient temperature and pressure): no TGA weight loss and no desolvation events in DTA

C#C[C@]1(O)CC[C@H]2[C@@H]3CC[C@H]4C[C@H](O)CC[C@]4(C)[C@H]3CC[C@@]21C [Form I, 17α-ethynyl-5α-androstane-3α,17β-diol]
relative stability of polymorphic forms ([3]; methanol-water, slurry seeded with Forms IV-VIII, 5 da at about 65° C. or 7 da at about 5° C.): most stable polymorphic form in methanol-water

C#C[C@]1(O)CC[C@H]2[C@@H]3CC[C@H]4C[C@H](O)CC[C@]4(C)[C@H]3CC[C@@]21C [Form III, 17α-ethynyl-5α-androstane-3α,17β-diol]
relative thermodynamic stability of polymorphic forms ([2]; provided not exposed to methanol-water): most thermodynamically stable polymorphic form | conversion of crystalline form (XRPD) ([3]; dissolved in MeOH at 65° C., water added, cooled to 20° C. over 2 hours, also slurry in 1:1 or 3:1 methanol:water): has converted to Form I

C#C[C@]1(O)CC[C@H]2[C@@H]3CC[C@H]4C[C@H](O)CC[C@]4(C)[C@H]3CC[C@@]21C [Compound 1, 17-Ethynyl-10R,13S-dimethyl-2,3,4,5S,6,7,8R,9S,10,11,12,13,14S,15,16,17-hexadecahydro-1H-cyclopenta[a]phenanthrene-3S,17S-diol]
mice with a tumor that became non-measurable by Day 15 (established LNCaP tumors): two | growth of established tumors (tumor volume) (established LNCaP tumors; tumors 15-25 mm^3 at start, p<0.001 vs vehicle): significantly blocked the growth of tumors | percent of mice that reduced their tumor volumes by 20% or more (established LNCaP tumors; vs vehicle, p<0.0294): significantly greater percent of mice | number of cells in G1 (LNCaP Cells [4]): rise in the number of cells in G1 | time to a new tumor as compared to vehicle ([5]; 28 consecutive days of treatment, 28 days of observation, p<0.001): longer time to a new tumor | time to new tumor compared with TAXOTERE ([5]; Compound 1 at 4 mg, p=0.042): outperformed TAXOTERE™ | tumor burden by volume compared with vehicle ([5]; Day 7 on: p<0.001): less tumor burden than for the vehicle treated group | median time to new tumor ([5]; from first day of dosing, vehicle 10 days): at least 56 days | delay to the occurrence of a second tumor vs vehicle ([5]; from median times to new tumor): at least a five fold delay | percentage of apoptotic LNCaP cells (LNCaP Cells [6]): increase in the percentage of apoptotic LNCaP cells | mean tumor volume in the animals that developed tumors (LNCaP tumor cells; 0.4 mg/mouse/day ip): 34 mm^3 | mean tumor volume in the animals that developed tumors (LNCaP tumor cells; 1 mg/mouse/day ip): 4 mm^3 | tumor incidence (compared to vehicle) (LNCaP tumor cells; 1 mg/mouse/day ip, p=0.006, n=11): significant reduction in tumor incidence | mean tumor volume in the animals that developed tumors (LNCaP tumor cells; 4 mg/mouse/day ip): 0 mm^3 | tumor incidence (compared to vehicle) (LNCaP tumor cells; 4 mg/mouse/day ip, p<0.001, n=12): significant reduction in tumor incidence | tumor volume (LNCaP tumor cells; all three dose groups (4, 1, 0.4 mg/mouse/day ip, 28 days)): decreases in tumor volume apparent | time to a measurable tumor volume (LNCaP tumor cells; three treated groups (4, 1, 0.4 mg/mouse/day ip), p<0.01): statistically significant delay
